Six compounds from ChEMBL document CHEMBL3797190, “Development of 3,5-Dinitrobenzylsulfanyl-1,3,4-oxadiazoles and Thiadiazoles as Selective Antitubercular Agents Active Against Replicating and Nonreplicating Mycobacterium tuberculosis” (J Med Chem, 2016) can be followed below.

Converted amounts (≈) assume the structure as drawn. The source made the active and inactive calls. No cut-off for these calls is given here.

Data set [1] in a line: Cytotoxicity against MDCK2-MDR1 cells assessed as cell viability at 20 uM after 48 hrs by MTS assay. Format: ADME, cell-based, Canis lupus familiaris, MDCK-II. The following applies: dog, read-out: Activity. (In general: Formazan colour is commonly taken as a measure of viable cells.)
Data set [2] is described as follows: Cytotoxicity against MDCK2-MDR1 cells assessed as cell viability at 20 uM after 24 hrs by MTS assay. Format: ADME, cell-based, Canis lupus familiaris, MDCK-II. The following applies: dog, read-out: Activity.
For data set [3], the system named is Hepatocyte. Nature of the data set: Cytotoxicity against primary human hepatocytes assessed as cell viability after 48 hrs by MTS assay. Format: cell-based.
In data set [4] the test system is Mycobacterium kansasii. Nature of the data set: Antimycobacterial activity against Mycobacterium kansasii CNCTC My 235/80 after 14 days by microdilution method. Format: functional. To be noted: CNCTC My 235/80, 336 h.
A short description of data set [5]: Cytotoxicity against human HeLa cells assessed as cell viability at 20 uM after 24 hrs by MTS assay. The following applies: read-out: Activity. Format: cell-based.
For data set [6], the system named is Mycobacterium kansasii. Nature of the data set: Antimycobacterial activity against Mycobacterium kansasii CNCTC My 235/80 after 21 days by microdilution method. Format: functional. The following applies: CNCTC My 235/80, 504 h. Background: Broth dilution looks for growth in wells or tubes with falling amounts of substance.
In data set [7] the test system is Mycobacterium kansasii. Kind of data set: Antimycobacterial activity against Mycobacterium kansasii CNCTC My 6509/96 after 21 days by microdilution method. Format: functional. The following applies: CNCTC My 6509/96, 504 h.
The nature of data set [8]: Cytotoxicity against human HuH7 cells assessed as cell viability after 24 hrs by MTS assay. Format: cell-based. The following applies: Huh-7, 24 h.
A short description of data set [9]: Cytotoxicity against human HuH7 cells assessed as cell viability at 20 uM after 24 hrs by MTS assay. Format: cell-based, Huh-7. The following applies: read-out: Activity.
The nature of data set [10]: Cytotoxicity against MDCK2-MDR1 cells assessed as cell viability after 24 hrs by MTS assay. Format: ADME, cell-based. To be noted: Canis lupus familiaris, MDCK-II.
Data set [11] in a line: Cytotoxicity against MDCK2-MDR1 cells assessed as cell viability after 48 hrs by MTS assay. Format: ADME, cell-based. The following applies: Canis lupus familiaris, MDCK-II.
Data set [12] concerns Salmonella typhimurium. Kind of data set: Mutagenic activity in Salmonella typhimurium TA98 assessed as reverse mutation at 30 uM by Ames test. Format: toxicity, organism-based. The following applies: salmonella enterica subsp. enterica serovar typhimurium. On the technique in general: The Ames test uses bacterial strains that need an amino acid and regain growth without it when mutated back.

The nature of data set [13]: Cytotoxicity against human HuH7 cells assessed as cell viability at 20 uM after 48 hrs by MTS assay. Format: cell-based, Huh-7. To be noted: read-out: Activity.
Data set [14] deals with HeLa. Nature of the data set: Cytotoxicity against human HeLa cells assessed as cell viability after 24 hrs by MTS assay. Format: cell-based.
For data set [15], the system named is Mycobacterium tuberculosis. Nature of the data set: Antimycobacterial activity against Mycobacterium tuberculosis CNCTC My 331/88 after 21 days by microdilution method. Format: functional. To be noted: CNCTC My 331/88, 504 h.
In data set [16] the test system is Mycobacterium kansasii. Kind of data set: Antimycobacterial activity against Mycobacterium kansasii CNCTC My 235/80 after 7 days by microdilution method. Format: functional. To be noted: CNCTC My 235/80, 168 h.
Data set [17] has as its system Mycobacterium kansasii. Kind of data set: Antimycobacterial activity against Mycobacterium kansasii CNCTC My 6509/96 after 14 days by microdilution method. Format: functional. To be noted: CNCTC My 6509/96, 336 h.
The test system of data set [18] is Mycobacterium avium. Kind of data set: Antimycobacterial activity against Mycobacterium avium CNCTC My 330/88 after 21 days by microdilution method. Format: functional. To be noted: CNCTC My 330/88, 504 h.
Data set [19] has as its system Salmonella typhimurium. Kind of data set: Mutagenic activity in Salmonella typhimurium TA100 assessed as reverse mutation at 30 uM by Ames test. Format: toxicity, organism-based. To be noted: salmonella enterica subsp. enterica serovar typhimurium.
The nature of data set [20]: Cytotoxicity against human HeLa cells assessed as cell viability at 20 uM after 48 hrs by MTS assay. Format: cell-based. The following applies: read-out: Activity.
The subject of data set [21] is HeLa. Kind of data set: Cytotoxicity against human HeLa cells assessed as cell viability after 48 hrs by MTS assay. Format: cell-based.
Data set [22] is described as follows: Cytotoxicity against primary human hepatocytes assessed as cell viability at 20 uM after 48 hrs by MTS assay. Format: cell-based, Hepatocyte. To be noted: read-out: Activity.
The test system of data set [23] is Mycobacterium kansasii. Kind of data set: Antimycobacterial activity against Mycobacterium kansasii CNCTC My 6509/96 after 7 days by microdilution method. Format: functional. To be noted: CNCTC My 6509/96, 168 h.
Data set [24] has as its system Mycobacterium avium. Nature of the data set: Antimycobacterial activity against Mycobacterium avium CNCTC My 330/88 after 14 days by microdilution method. The following applies: CNCTC My 330/88, 336 h. Format: functional.
In data set [25] the test system is Mycobacterium tuberculosis. Nature of the data set: Antimycobacterial activity against Mycobacterium tuberculosis CNCTC My 331/88 after 14 days by microdilution method. Format: functional. The following applies: CNCTC My 331/88, 336 h.
Data set [26] has as its system Mycobacterium tuberculosis. Nature of the data set: Antimycobacterial activity against Mycobacterium tuberculosis H37Rv after 7 days by HTS assay. Format: functional. The following applies: 168 h.
Data set [27] deals with Mycobacterium tuberculosis. Nature of the data set: Inhibition of proteosynthesis in Mycobacterium tuberculosis H37Ra assessed as reduction of [14C]-methionine incorporation at 5 ug/ml preincubated for 1 hr followed by radiolabeling with [14C]-methionine for 24 hrs by scintillation spectrometry. Format: functional, organism-based.
Data set [28] relates to Mycobacterium tuberculosis. Nature of the data set: Inhibition of RNA biosynthesis in Mycobacterium tuberculosis H37Ra assessed as reduction of [14C]-uracil incorporation at 5 ug/ml preincubated for 1 hr followed by radiolabeling with [14C]-uracil for 24 hrs by scintillation spectrometry. Format: functional, organism-based.
Data set [29] relates to Mycobacterium tuberculosis. Nature of the data set: Antimycobacterial activity against Mycobacterium tuberculosis H37Ra assessed as growth inhibition at 5 ug/ml preincubated for 1 hr followed by radiolabeling with [14C]-uracil, [14C]-methionine for 24 hrs. Format: functional, organism-based.
Data set [30] concerns Mycobacterium tuberculosis. Nature of the data set: Antimycobacterial activity against Mycobacterium tuberculosis H37Ra assessed as growth inhibition at 0.2 ug/ml preincubated for 24 hrs followed by radiolabeling with [14C]-acetate for 24 hrs. The following applies: read-out: GI. Format: functional.
Data set [31] concerns Mycobacterium tuberculosis H37Ra. Nature of the data set: Inhibition of DprE1 in Mycobacterium tuberculosis H37Ra assessed as accumulation of trehalose dimycolate at 0.2 ug/ml preincubated for 24 hrs followed by radiolabeling with [14C]-acetate for 24 hrs by TLC/autoradiographic method.
The nature of data set [32]: Cytotoxicity against human HuH7 cells assessed as cell viability after 48 hrs by MTS assay. Format: cell-based. To be noted: Huh-7, 48 h.
Data set [33] concerns Mycobacterium tuberculosis. Nature of the data set: Inhibition of proteosynthesis in Mycobacterium tuberculosis H37Ra assessed as reduction of [14C]-methionine incorporation at 0.05 ug/ml preincubated for 1 hr followed by radiolabeling with [14C]-methionine for 24 hrs by scintillation spectrometry. Format: functional.
In data set [34] the test system is Mycobacterium tuberculosis. Kind of data set: Inhibition of RNA biosynthesis in Mycobacterium tuberculosis H37Ra assessed as reduction of [14C]-uracil incorporation at 0.05 ug/ml preincubated for 1 hr followed by radiolabeling with [14C]-uracil for 24 hrs by scintillation spectrometry. Format: functional.
Data set [35] concerns Mycobacterium tuberculosis. Kind of data set: Antimycobacterial activity against Mycobacterium tuberculosis H37Ra assessed as growth inhibition at 0.05 ug/ml preincubated for 1 hr followed by radiolabeling with [14C]-uracil, [14C]-methionine for 24 hrs. Format: functional, organism-based.

`COc1cccc(-c2nnc(SCc3cc([N+](=O)[O-])cc([N+](=O)[O-])c3)s2)c1`: the viability at 48 h, 20 µM in data set [1] was 18.5%; in data set [13], 33%; in data set [20], 17.5%; in [22] it was 121%. Moreover, the viability at 24 h, 20 µM in [2] was 100%; in data set [5], 71.2%; in data set [9], 86.3%. For the same compound, the IC50 in data set [3] is greater than 20 µM; in [8], greater than 20 µM; in data set [10], greater than 20 µM; in data set [11] it was 6.4 µM; in data set [14], greater than 20 µM; in data set [21], 4 µM. Moreover, the MIC99 was 0.5 µM (≈ 0.202 µg/mL) in data set [4]; 0.5 µM (≈ 0.202 µg/mL) in data set [6]; 0.5 µM (≈ 0.202 µg/mL) in data set [7]; 0.06 µM (≈ 0.0243 µg/mL) in data set [15]; 0.25 µM (≈ 0.101 µg/mL) in data set [16]; 0.5 µM (≈ 0.202 µg/mL) in [17]. In addition, the MIC99 in data set [18] was 16 µM (≈ 6.47 µg/mL); in data set [23], 0.25 µM (≈ 0.101 µg/mL); in data set [24], 8 µM (≈ 3.24 µg/mL); in data set [25], no more than 0.03 µM. Also, the Activity entry in data set [12] and in data set [19] was “Non-toxic” each time.

`COc1ccc(-c2nnc(SCC(=O)NCCc3ccccc3)o2)cc1` gave an IC90 in data set [26] of 0.38 µM.

As to `NC[C@H]1O[C@H](O[C@H]2[C@H](O)[C@@H](O[C@H]3O[C@H](CO)[C@@H](O)[C@H](N)[C@H]3O)[C@H](N)C[C@@H]2N)[C@H](O)[C@@H](O)[C@@H]1O`, the inhibition result in data set [27] was “Active”. Moreover, the inhibition result in data set [28] was “inactive”. In [29], the “growth inhibition (GI)” value is “Active”.

As to `C[C@H]1COC2(CCN(c3nc(=O)c4cc(C(F)(F)F)cc([N+](=O)[O-])c4s3)CC2)O1` [BTZ-043], the inhibition of growth at 0.2 µg/mL in data set [30] is 38%. Further, in data set [31], the inhibition entry is “Active”.

In the case of `COC(=O)CSc1nnc(-c2ccc(C(C)(C)C)cc2)s1`, the 90% effect level in [26] (IC90) was put at 0.62 µM.

Regarding `CO[C@H]1/C=C/O[C@@]2(C)Oc3c(C)c(O)c4c(O)c(c(/C=N/N5CCN(C)CC5)c(O)c4c3C2=O)NC(=O)/C(C)=C\C=C\[C@H](C)[C@H](O)[C@@H](C)[C@@H](O)[C@@H](C)[C@H](OC(C)=O)[C@@H]1C` [RIFAMPIN], the viability at 48 h, 20 µM in [1] was 106%; in data set [13], 52.7%; in data set [20], 100%; in data set [22] it was 123%. In addition, the viability at 24 h, 20 µM is 103% in [2], 102% in data set [5] and 98.3% in data set [9]. Moreover, the IC50 in [3], in data set [32], in data set [8], in data set [10], in data set [11] and in data set [14] was greater than 20 µM in each case. Also, the IC50 in data set [21] was greater than 20 µM. Also, the inhibition at 0.05 µg/mL in data set [33] came out at 61%; in data set [34], 68%. Also, the “growth inhibition (GI)” value in [35] is “Active”.

The term IC50 denotes the concentration at which inhibition is half-maximal. The term MIC99 denotes an inhibitory concentration at the 99% level, which refers to growth in some studies and to a panel of isolates in others. A lower MIC99 goes with greater potency. By IC90 is commonly meant the point of the concentration-response curve where the effect stands at 90%. High values mean a need for much substance, low ones an effect from little substance. A word on the inhibition: it is the change of the read-out against control, counted positive when it falls.
